Experimental data published in publication PMC6815954, “Rational design of caspase-responsive smart molecular probe for positron emission tomography imaging of drug-induced apoptosis” (Theranostics, 2019).
Where two headings read alike, the source gives them in different places.

How the values were obtained:
[1] = system: activated caspase-3 (19/17 kDa); experiment: Western blotting of tumor and muscle lysates; format: in vivo, BALB/c nude mice; details: DOX intratumoral; normalized to β-actin; n = 3
Experimental: At the end of microPET imaging, DOX-treated or untreated mice were killed. Tumor and muscle tissues (~100 mg) were homogenized by an electronic homogenate machine in RIPA lysis buffer (1 mL) containing protease and phosphatase inhibitors (Halt Protease Inhibitor Cocktail, Thermo Fisher Scientific Inc.). Soluble lysates were harvested by centrifugation at 12,000 rpm for 10 min at 4 °C. Protein content was measured using BCA protein assay kit and 40 μg of protein was separated with a 12% SDS-PAGE gel. After blotting to PVDF membrane, the membranes were blocked with 5% skimmed milk in tris-buffered saline (TBS, pH 7.4) for 60 min at room temperature and incubated overnight at 4 °C in buffer (TBS with 0.1% Tween-20 and 5% skimmed milk) containing different antibodies. Detection of primary antibody was performed with HRP-conjugated secondary antibody. Immunoreactive bands were visualized with Western blotting luminol reagent. Densitometric analysis was performed using Image J software.

[2] = system: active caspase-3 (19/17 kDa); experiment: Western blotting of DOX-treated HeLa cells, active caspase-3; format: cell-based, human; details: 24 h
Experimental: (§1) Western blotting analysis of caspase-3 activity in DOX-treated HeLa cells HeLa cells were seeded into 6-well plates at the density of 5 ×10^5 cells/well, followed by treatment with various concentrations of DOX for 24 h. Cells were washed with ice-cold PBS and then lysed at 4 °C for 5 min with RIPA lysis buffer containing protease and phosphatase inhibitors (Halt Protease Inhibitor Cocktail, Thermo Fisher Scientific Inc.). Soluble lysates were harvested by centrifugation at 12,000 rpm for 10 min at 4 °C. The content of protein was […]
(§2) (1 picture or pasted object on this page, not shown here) […]
(§3) measured using BCA protein assay kit and 40 μg of protein was separated with a 12% […]
(§4) SDS-PAGE gel. After blotting to PVDF membrane, the membranes were blocked with 5% […]
(§5) skimmed milk in tris-buffered saline (TBS, pH 7.4) for 60 min at room temperature and […]
(§6) incubated overnight at 4 °C in buffer (TBS with 0.1% Tween-20 and 5% skimmed milk) […]
(§7) containing different antibodies. Detection of primary antibodies was performed with […]
(§8) HRP-conjugated secondary antibody. Immunoreactive bands were visualized with Western […]
(§9) blotting luminol reagent. Densitometric analysis was performed using Image J software. […]
(§10) The DOX-treated group was cultured in the presence of DOX (2 µM) […]
(§11) for 6 h at 37 °C, then the medium was changed and the cells were cultured for another 24 h at […]
(§12) 37 °C. After incubated with 1-FITC (2 µM) for 6 h at 37 °C, the cells were washed with PBS, […]
(§13) fixed with 3.7% formaldehyde in PBS and permeabilized with 0.1% Triton X-100 in PBS for […]
(§14) 30 min at room temperature. Cells were blocked with 5% BSA in PBS for 30 min, and then […]
(§15) washed with PBS. Afterwards, cells were incubated with anti-caspase-3 antibody (caspase-3 […]
(§16) rabbit monoclonal antibody, Beyotime) overnight at 4 °C, washed with PBS, and incubated […]
(§17) with Cy3-labeled goat anti-rabbit IgG (Beyotime) for 1 h. Cells were washed with PBS […]
(§18) andstained with DAPI (5 µg/mL) for 2 min, and thenwashed twice with PBS. Finally, the cells […]
(§19) were viewed with the Olympus Xcellence. […]

[3] = system: intact caspase-3 (35 kDa); experiment: Western blotting of DOX-treated HeLa cells, intact caspase-3; format: cell-based, human; details: 24 h
Experimental: as §1, §2, §3, §4, §5, §6, §7, §8, §9, §10, §11, §12, §13, §14, §15, §16, §17, §18, §19

tumor [4] = system: tumor; design: method as in PMID 25972517; details: cited from earlier work
tumor [5] = details: cited from earlier work
From the text: Recently, a potential PET imaging agent [^18F]ICMT-11 for monitoring the tumor cell death has been approved for clinical trials, where only a modest increase of 65% uptake can be observed in the treated tumor in comparison with the vehicle control tumor [36].

HeLa cells = experiment: Cellular uptake assay of [^18F]1; format: cell-based, human
Experimental: green fluorescence) for 6 h. The active caspase-3 was stained with anti-caspase-3 primary antibody and a Cy3-labeled secondary antibody (red fluorescence). The cell nuclei were stained with DAPI (blue fluorescence). The images of 1-FITC and active caspase-3 were merged in the last column.
HeLa cells were seeded into a 6-well plate and incubated for 24 h at 37 °C. The cells were cultured in the presence of DOX (2 µM) at 37 °C for 0, 2, 4, 6, 12, and 24 h, respectively. The probe [ 18F]1 (1.0 µCi, 0.037 MBq) was added to each well and incubated for additional 4 h at 37 °C. For inhibition assay, the caspase inhibitor Z-VAD-FMK (50 µM) was added to the DOX-treated cells for 48 h before the addition of [ 18F]1. To study the influence of cold compound 1 on cellular uptake of [ 18F]1 in DOX-treated or untreated cells, HeLa cells were incubated with the cold compound 1 (10 µM) and [ 18F]1 for 4 h at 37 °C.The cells were harvested withcentrifugal separationat 4,000 rpm for 5 min after washing twice with PBS. Then Tryp-LE TM Express (1 mL) was added and the cells were kept for 1-2 min to allow detaching. The cell/Tryp-LE solution was counted by a γ counter and the activity was normalized to the protein concentration (determined by comparison with BSA standard in an absorption assay from Pierce) in each vial.
Figure S23. […]

HeLa xenograft tumor = details: for tracer uptake ratio in DOX-treated versus untreated tumors: only [^18F]1
Experimental: BALB/c nude mice (18-20 g, 4-6 weeks old) were used for animal experiments. Mice were housed with free access to food and water, and allowed ample time to acclimatize before the experiments. The tumor models were established by subcutaneous injection of human cervical cancer cells HeLa (1~2×10^6) suspended in PBS (100 µL) in the right shoulder or the posterior limb of the nude mouse. The tumors were allowed to grow for around 3-4 weeks to reach the size of 0.5-1.0 cm in diameter. Then, a subset of mice were treated with intratumoral or intravenous injection of DOX (0.2 mg, in 20 µL). Three days later, the animals were used for PET imaging and then the tumors were removed for the analysis of caspase-3 activity. All procedures were approved by the Animal Care and Ethics Committee of Jiangsu Institute of Nuclear Medicine.
PET scanning was carried out using an Inveon Dedicated microPET scanner (Siemens). In all experiments, the mice were anesthetized with isoflurane (2% isoflurane in oxygen at a flow rate of 2 L/min). One group of HeLa-bearing mice were scanned at baseline (without DOX treatment) as a control. For the experimental groups, microPET imaging was performed for one group of mice three days after a single intratumoral injection of DOX (0.2 mg) and the other group was performed after intravenous injection of DOX (0.2 mg) every 4 days for a total of three administrations. The probe [^18F]1 (~100 μCi, in 100 μL physiological saline) was administrated by intravenous injection via the tail vein. For the co-injection group, the mice were administrated by intravenous injection of the probe [^18F]1 with the precursor 1 (20 µmol/kg) via the tail vein. PET images were acquired in a list mode date for 60 min. The PET data were binned into 12 frames and each frame was reconstructed with the OSEM3D/MAP algorithm using microPET Manager (version 6869, Siemens). The reconstructed pixel size was 0.78 × 0.78 × 0.80 mm on a 128 × 128 × 159 image matrix. All PET images were corrected for decay but not for attenuation. Each image was analyzed using ASIPro software (Siemens). […]

Which “expression level of activated caspase-3 in DOX-treated tumor versus muscle” value [1] does the source give for COc1cccc2c1C(=O)c1c(O)c3c(c(O)c1C2=O)C[C@@](O)(C(=O)CO)C[C@@H]3O[C@H]1C[C@H](N)[C@H](O)[C@H](C)O1 [DOX, doxorubicin] here?
Its value is 7.5 folds.

And the “expression level of activated caspase-3 in DOX-treated tumor versus untreated tumor” value [1]?
Its value is 4.5 folds.

What about the “increase of active caspase-3 expression versus DOX-untreated cells” value ([2]; 0.5 µM DOX) of the same compound?
Its value is 3.3 folds.

What about the “increase of active caspase-3 expression versus DOX-untreated cells” value ([2]; 1 µM DOX) of the same compound?
Its value is 9.3 folds.

And the “increase of active caspase-3 expression versus DOX-untreated cells” value ([2]; 2 µM DOX)?
Its value is 13.4 folds.

What about the “increase of active caspase-3 expression versus DOX-untreated cells” value ([2]; 4 µM DOX) of the same compound?
The value was 15.5 folds.

What about the “decrease of intact caspase-3 expression versus DOX-untreated cells” value (shortened to “decrease”) ([3]; 0.5 µM DOX) of the same compound?
The value was 1.3 folds.

And the “decrease” value ([3]; 1 µM DOX)?
The value was 1.5 folds.

And the “decrease” value ([3]; 2 µM DOX)?
The value was 2.1 folds.

And the “decrease” value ([3]; 4 µM DOX)?
Its value is 2.2 folds.

For OC[C@H]1OC(O)[C@H]([18F])[C@@H](O)[C@@H]1O (stereo partly shown) [^18F-FDG], which “response to cell death” value (tumor [4]) is on record?
The value was “no differentiated response”.

For O=C1C(=O)N(Cc2cn(CC[18F])nn2)c2ccc(S(=O)(=O)N3CCCC3COc3ccc(F)cc3F)cc21 (stereo not shown) [[^18F]ICMT-11], which “increase of uptake in treated tumor versus vehicle control tumor” value (tumor [5]) is on record?
The value was 65%.

With “[^18F]DEVD-Cys(StBu)-PPG(CBT)-AmBF3 [[^18F]1]” as the compound, how does the “uptake with versus without addition of cold compound 1” value (HeLa cells; DOX-untreated HeLa, cold 1 10 µM, 4 h, 37 °C) read?
Its value is “almost identical”.

What about the “retained [^18F] activity in DOX-treated cells with caspase inhibitor, versus untreated tumor cells” value (HeLa cells; HeLa, DOX 24 h, Z-VAD-FMK 50 µM for 48 h before [^18F]1) of the same compound?
Its value is “almost identical”.

And the “tumor-to-muscle uptake ratio in treated apoptotic tumor model relative to untreated group” value (HeLa xenograft tumor; 20 min post injection)?
Its value is “more than two folds”.

And the “tracer uptake ratio in DOX-treated versus untreated tumors” value (HeLa xenograft tumor; DOX intratumoral, 15-20 min post injection)?
Its value is 4.23.

What about the “tracer uptake ratio in DOX-treated versus untreated tumors” value (HeLa xenograft tumor; DOX intravenous) of the same compound?
The value was 3.01.

What does the source list for CC(CCCCC[18F])(C(=O)O)C(=O)O [^18F-ML-10]?
differential response to treatment (tumor [4]): little differential response; response to cell death (tumor [4]): no differentiated response
